Experimental data taken from US7097965B2 (priority 1996, dated 2006).

Test system: mouse mastocytoma cells
Assay type: cell-based

`CC(=O)N[C@@H](CSC(=O)[C@]1([C@@H](O)C(C)C)NC(=O)[C@H](C)[C@@H]1O)C(=O)O` [lactacystin] was tested. Which “lysis of the target cells by CTLs” value did it give?
The value was “significantly decreased lysis”.
